≈ marks a conversion by molar mass, not a printed value. Blank lines part the entries; values can stand above or below the compound they belong to.
Experiments:
Assay in all cases: ≥ marks a high value that may be exact or a test limit, other limits are often not marked, values filed in µg/mL are converted to µM
[1] = test system: Acinetobacter baumannii CR17
[2] = test system: Acinetobacter baumannii Ab11
[3] = test system: Acinetobacter baumannii CR86
[4] = test system: Klebsiella pneumoniae NCTC 13368
[5] = test system: Pseudomonas aeruginosa PAO1
[6] = test system: Staphylococcus aureus USA 300
[7] = test system: Staphylococcus aureus NCTC 13616
[8] = test system: Escherichia coli NCTC 12923
Klebsiella pneumoniae M6 = test system: Klebsiella pneumoniae M6
Staphylococcus aureus = test system: Staphylococcus aureus
Escherichia coli LEC001 = test system: Escherichia coli LEC001
[9] = test system: Staphylococcus aureus ATCC 9144
[10] = test system: Staphylococcus aureus ATCC 25923
[11] = test system: Acinetobacter baumannii AYE
[12] = test system: Candida tropicalis NCPF 8760
Bacillus subtilis = test system: Bacillus subtilis
[13] = test system: Escherichia coli ATCC 25922
Candida krusei NCPF 3876 = test system: Candida krusei NCPF 3876
[14] = test system: Candida glabrata NCPF 8018
[15] = test system: Pseudomonas aeruginosa NCTC 13437
[16] = test system: Acinetobacter baumannii ATCC 17978
[17] = test system: Candida parapsilosis NCPF 3209
Enterococcus sp. S13 = test system: Enterococcus sp. S13
[18] = test system: Bacillus magaterium AB90008
[19] = test system: Staphylococcus aureus AB94004
[20] = test system: Salmonella enterica AB2010185
[21] = test system: Micrococcus luteus AB2010179
[22] = test system: Klebsiella oxytoca AB2010143
[23] = test system: Candida tropicalis AY91009
[24] = test system: Escherichia coli DH5alpha
[25] = test system: Staphylococcus aureus 16472
Pseudomonas putida = test system: Pseudomonas putida
[26] = test system: Enterobacter cloacae AB2010162
[27] = test system: Candida albicans ATCC 90028
[28] = test system: Batrachochytrium dendrobatidis JEL-197
[29] = test system: Escherichia coli ATCC 25726

MIC [1]: 10.5 µM (≈ 16 µg/mL)
MIC [2]: ≥ 42 µM
MIC [3]: 21 µM (≈ 31.9 µg/mL)
SMILES: CC[C@H](C)[C@H](NC(C)=O)C(=O)N[C@@H](CC(N)=O)C(=O)N[C@@H](CC(C)C)C(=O)N[C@@H](CCCCN)C(=O)N[C@@H](C)C(=O)N[C@@H](CC(C)C)C(=O)N[C@@H](C)C(=O)N[C@@H](C)C(=O)N[C@@H](CC(C)C)C(=O)N[C@@H](C)C(=O)N[C@@H](CCCCN)C(=O)N[C@@H](CCCCN)C(=O)N[C@H](C(=O)N[C@@H](CC(C)C)C(N)=O)[C@@H](C)CC [INLKALAALAKKIL]

MIC [4]: ≥ 121 µM
MIC [5]: > 121 µM
MIC [6]: ≥ 121 µM
MIC [7]: ≥ 121 µM
MIC [8]: ≥ 121 µM
MIC (Klebsiella pneumoniae M6): ≥ 121 µM
MIC (Staphylococcus aureus): 64.3 µM (≈ 67.7 µg/mL)
MIC (Escherichia coli LEC001): ≥ 121 µM
MIC [9]: ≥ 121 µM
MIC [10]: 8.25 µM (≈ 8.69 µg/mL)
MIC [11]: ≥ 121 µM
MIC [12]: ≥ 121 µM
MIC (Bacillus subtilis): 13.7 µM (≈ 14.4 µg/mL)
MIC [13]: 22.4 µM (≈ 23.6 µg/mL)
MIC (Candida krusei NCPF 3876): ≥ 121 µM
MIC [14]: ≥ 121 µM
MIC [15]: ≥ 121 µM
MIC [16]: ≥ 121 µM
MIC [17]: ≥ 121 µM
SMILES: CC[C@H](C)[C@H](NC(=O)[C@@H](N)CCCCN)C(=O)N[C@@H](C)C(=O)N[C@@H](CCCCN)C(=O)N[C@H](C(=O)N[C@@H](C)C(=O)N[C@@H](CC(C)C)C(=O)N[C@@H](CCCCN)C(=O)N[C@@H](C)C(=O)N[C@@H](CC(C)C)C(N)=O)C(C)C [KIAKVALKAL]

MIC (Enterococcus sp. S13): 4 µM (≈ 5.97 µg/mL)
MIC [18]: 6 µM (≈ 8.95 µg/mL)
MIC [19]: 16 µM (≈ 23.9 µg/mL)
MIC [20]: ≥ 84 µM
MIC [21]: 8 µM (≈ 11.9 µg/mL)
MIC [22]: ≥ 87 µM
MIC [23]: 17 µM (≈ 25.4 µg/mL)
MIC [24]: ≥ 36 µM
MIC [25]: 12 µM (≈ 17.9 µg/mL)
MIC (Pseudomonas putida): ≥ 87 µM
MIC [26]: ≥ 87 µM
SMILES: CC[C@H](C)[C@H](NC(=O)CNC(=O)[C@H](CC(N)=O)NC(=O)[C@H](Cc1c[nH]c2ccccc12)NC(=O)[C@@H](NC(=O)[C@@H](NC(=O)[C@H](CO)NC(=O)[C@H](CC(C)C)NC(=O)[C@@H](N)Cc1ccccc1)[C@@H](C)O)[C@@H](C)CC)C(=O)N[C@@H](CCCCN)C(=O)N[C@@H](CO)C(=O)N[C@@H](CC(C)C)C(=O)N[C@@H](CC(C)C)C(=O)O [FLSTIWNGIKSLL]

MIC [27]: ≥ 50 µM
MIC [10]: 50 µM (≈ 82.5 µg/mL)
MIC [28]: 25 µM (≈ 41.2 µg/mL)
MIC [29]: ≥ 100 µM
SMILES: CC[C@H](C)[C@H](NC(=O)[C@H](Cc1ccccc1)NC(=O)[C@H](CCCCN)NC(=O)[C@H](CCCCN)NC(=O)[C@H](C)NC(=O)[C@H](CC(C)C)NC(=O)[C@H](CC(N)=O)NC(=O)[C@@H](NC(=O)[C@H](CC(C)C)NC(=O)[C@@H](NC(=O)[C@H](CC(=O)O)NC(=O)[C@H](CC(C)C)NC(=O)[C@H](Cc1ccccc1)NC(=O)[C@@H](N)CC(N)=O)[C@@H](C)O)[C@@H](C)CC)C(N)=O [NFLDTLINLAKKFI]

Source: DBAASP
